{"source": "patent US8748395B2", "about": "“Cell-permeable peptide inhibitors of the JNK signal transduction pathway” (Xigen Inflammation Ltd., priority 2006, dated 2014)", "key": {"WiDr cells": {"tested_on": "WiDr cells", "assay": "Irradiation (30 Gy) induced apoptosis of WiDr cells", "type": "cell-based, human", "conditions": "1 μM added 30 minutes before 30 Gy, analyzed 48 hours later", "protocol": "JNK is also activated by ionizing radiation. To determine whether inventive TAT-IB(s) peptides would provide protection against radiation-induced JNK damage, “WiDr” cells were irradiated (30 Gy) in presence or absence of D-TAT, inventive L-TAT-IB1(s) or inventive D-TAT-IB1(s) peptides (1 μM added 30 minutes before irradiation). Control cells (CTRL) were not irradiated. Cells were analyzed 48 hours later by means of PI and Hoechst 3342 staining, as described above. N=3, SEM are indicated."}, "[1]": {"tested_on": "endogenous JNK activity in HepG2 cells", "assay": "Inhibition of endogenous JNK activity in HepG2 cells, AlphaScreen all-in one well approach", "type": "cell-based", "protocol": "HepG2 cells were seeded at 3'000 cells/well the day prior the experiment. Then, increasing concentrations of either interleukin-1β [IL-1β(ν)] or tumor necrosis factor α [TNFα(●)] (a) were added to activate JNK for 30 minutes. Cells were lysed in 20 mM Hepes, 0.5% Tween pH 7.4 and processed for AlphaScreen JNK. (b) Z′ for the JNK activity induced by 10 ng/ml IL-1β and measured in 384 wells/plate (n=96). (c) Inhibition of endogenous IL-1β-induced JNK activity with chemical JNK inhibitors [staurosporin (°) and SP600125 (●)]. (d) Effect of peptidic inhibitors L-TAT-IB1(s) according to SEQ ID NO: 9 [here abbreviated as L-JNKi (ν)) and D-TAT-IB1(s) according to SEQ ID NO: 11 (here abbreviated as D-JNKi (♦)) and JBDs (●) (corresponds to L-JNKI without the TAT sequence)] on IL-1α dependent JNK activity. All panels are representative of three independent experiments (n=3).\nMethods: Alphascreen Kinase Assay\nPrinciple: AlphaScreen is a non-radioactive bead-based technology used to study biomolecular interactions in a microplate format. The acronym ALPHA stands for Amplified Luminescence Proximity Homogenous Assay. […]\nKinase reagents (B-GST-cJun, anti P-cJun antibody and active JNK3) were first diluted in kinase buffer (20 mM Tris-HCl pH 7.6, 10 mM MgCl2, 1 mM DTT, 100 μM Na3VO4, 0.01% Tween-20) and added to wells (15 μl). […] AlphaScreen signal was analyzed directly on the Fusion or En Vision apparatus."}, "βTC-3 cells": {"tested_on": "βTC-3 cells", "assay": "Inhibition of IL-1β induced pancreatic β-cell death by TAT-IB peptides", "type": "cell-based", "conditions": "one single addition of peptide 1 μM, IL-1β every two days, 15 days", "protocol": "We investigated the effects of the inventive L-TAT-IB(s) peptides on the promotion of β-cell apoptosis elicited by IL-1. PTC-3 cell cultures were incubated for 30 minutes with 1 μM of inventive L-TAT-IB1(s) peptides followed by 10 ng/mL of IL-1. A second addition of peptide (1 μM) was performed 24 hours later. Apoptotic cells were counted after two days of incubation with IL-1β using propidium iodide (red stained cell are dead cells) and Hoechst 33342 (blue stained cell are cells with intact plasma membrane) nuclear staining.\nLong term inhibition of IL-1 induced cells death was examined by treating βTC-3 cells as described above, except that incubation of the cells with the peptides and IL-1β was sustained for 12 days. Additional peptides (1 μM) were added each day and additional IL-1β (10 ng/mL) was added every 2 days. […] Taken together, these experiments provide evidence that inventive TAT-IB(s) peptides are biologically active molecules able to prevent the effects of JNK signaling on cell fate.\nInhibition of IL-1β induced pancreatic β-cell death by the inventive D-TAT-IB1(s) peptide was analyzed. βTC-3 cells were incubated as described above for 30 minutes with one single addition of the indicated peptides (1, μM), then IL-1 (10 ng/ml) was added.\nApoptotic cells were then counted after two days of incubation with IL-1β by use of Propidium Iodide and Hoechst 33342 nuclear staining. A minimum of 1,000 cells were counted for each experiment. Standard Error of the Means (SEM) are indicated, n=5.\nLong term inhibition of IL-1P induced cell-death by the D-TAT-IB1 peptide was also analyzed. βTC-3 cells were incubated as above for 30 minutes with one single addition of the indicated peptides (1 μM), then IL-1β (10 ng/ml) was added, followed by addition of the cytokine every two days. Apoptotic cells were then counted after 15 days of incubation with IL-1 by use of propidium iodide and Hoechst 33342 nuclear staining. […] A minimum of 1.000 cells were counted for each experiment."}, "[2]": {"tested_on": "cortical neuronal culture", "assay": "LDH release from cortical neuronal cultures following NMDA stimulation", "type": "cell-based, rat", "conditions": "5 μM peptide, 30 min pre-treatment, 12 h of 100 μM NMDA", "protocol": "The neuroprotective effect of the D-TAT-IB (generic)(s)/D-JNKI1 peptide (SEQ ID NO: 12) was evaluated in sister cultures pre-treated for 30 min with the indicated concentrations of peptides or MK-801 before continuous exposure to 100 μM NMDA.\nCortical neuronal culture. We dissected small pieces of cortex from the brains of two day old rat pups, incubated them with 200 units of papain for 30 min at 34° C., and then plated the neurons at densities of approximately 1×10^6 cells/plate on dishes pre-coated with 100 μg/ml poly-D-lysine. The plating medium consisted of B27/Neurobasal (Life Technologies, Gaithersburg, Md.) supplemented with 0.5 mM glutamine, 100 U/ml penicillin and 100 ug/ml streptomycin.\nLactate dehydrogenate (LDH) cytotoxicity assay. LDH released into the bathing medium 12, 24 and 48 h after NMDA administration was measured using the Cytotox 96 non- radioactive cytotoxicity assay kit (PROMEGA®, WI) (see FIG. 5)."}}, "note": "Square brackets hold non-standard residues; d marks the D form. Peptide text beside a SMILES is read from it.", "data": [{"smiles": "CC(C)C[C@@H](NC(=O)[C@@H](Cc1ccccc1)NC(=O)[C@H]1CCCN1C(=O)[C@@H](CCC(N)=O)NC(=O)[C@H](NC(=O)[C@H]1CCCN1C(=O)[C@@H](CCCNC(=N)N)NC(=O)[C@@H](CO)NC(=O)[C@@H](CCC(N)=O)NC(=O)[C@H](N)CC(=O)O)C(C)C)C(=O)N[C@H](CC(N)=O)C(=O)N[C@H](CC(C)C)C(=O)N[C@@H](C(=O)N[C@@H](C(=O)N1CCC[C@@H]1C(=O)N[C@H](CCCNC(=N)N)C(=O)N[C@H](CCCCN)C(=O)N1CCC[C@@H]1C(=O)N[C@H](CCCNC(=N)N)C(=O)N1CCC[C@@H]1C(=O)N1CCC[C@@H]1C(=O)N[C@H](CCCNC(=N)N)C(=O)N[C@H](CCCNC(=N)N)C(=O)N[C@H](CCCNC(=N)N)C(=O)N[C@H](CCC(N)=O)C(=O)N[C@H](CCCNC(=N)N)C(=O)N[C@H](CCCNC(=N)N)C(=O)N[C@H](CCCCN)C(=O)N[C@H](CCCCN)C(=O)N[C@H](CCCNC(=N)N)C(=O)NCC(=O)O)[C@H](C)O)[C@H](C)O", "note": "[D-TAT-IB1(s)] (H-[dD][dQ][dS][dR][dP][dV][dQ][dP][dF][dL][dN][dL][dT][dT][dP][dR][dK][dP][dR][dP][dP][dR][dR][dR][dQ][dR][dR][dK][dK][dR]G-OH)", "values": [{"measurement": "prevention of irradiation induced apoptosis", "setting": "WiDr cells", "result": "able to prevent irradiation induced apoptosis"}, {"measurement": "inhibition of IL-1β-induced endogenous JNK activity", "setting": "[1]", "result": "effectively inhibits JNK activity, even better than L-TAT-IB1(s)"}, {"measurement": "long term (15 day) protection against IL-1β induced cell death", "setting": "βTC-3 cells", "result": "able to confer long term (15 day) protection"}, {"measurement": "degenerative changes due to NMDA exposure (LDH release above controls)", "setting": "[2]", "result": "degenerative changes due to NMDA exposure were completely inhibited"}]}]}
